Measurements reported in patent US12428408B2, “Fused heterocyclic mescaline derivatives” (Enveric Biosciences Canada Inc., priority 2022, dated 2025).
pKi: −log10 of the molar value.

Experiments:
5-HT1D (r) = target: T1, 5-HT1D (r) (Rattus norvegicus, UniProt P28565); assay: Competition assay to measure binding affinity at 5-HT1D receptor; conditions: test ligand 10 μM; [3H]serotonin 1 nM
T1 construct: host or cells: CHO cells

5-HT7 (h) = target: T2, 5-HT7 (h) (Homo sapiens, UniProt P34969); assay: Competition assay to measure binding affinity at 5-HT7 receptor; conditions: test ligand 10 μM; [3H]LSD 4 nM
T2 construct: host or cells: HEK-293 cells
T2 sequence (P34969 whole entry): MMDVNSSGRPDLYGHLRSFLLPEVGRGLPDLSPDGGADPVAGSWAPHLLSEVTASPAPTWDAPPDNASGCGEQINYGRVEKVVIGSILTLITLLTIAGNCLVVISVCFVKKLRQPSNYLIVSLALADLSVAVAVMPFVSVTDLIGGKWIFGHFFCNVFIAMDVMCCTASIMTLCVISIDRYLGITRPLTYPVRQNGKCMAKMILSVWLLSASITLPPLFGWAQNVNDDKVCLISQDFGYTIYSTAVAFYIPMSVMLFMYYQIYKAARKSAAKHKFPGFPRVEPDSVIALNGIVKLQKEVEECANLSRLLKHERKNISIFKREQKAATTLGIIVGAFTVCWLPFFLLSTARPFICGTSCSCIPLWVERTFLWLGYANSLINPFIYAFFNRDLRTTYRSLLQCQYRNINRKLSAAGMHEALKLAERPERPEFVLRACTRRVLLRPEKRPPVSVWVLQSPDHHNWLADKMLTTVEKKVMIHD

NET (h) = target: T3, NET (h) (Homo sapiens, UniProt P23975); assay: Competition assay to measure binding affinity at norepinephrine transporter (NET); conditions: test ligand 10 μM; [3H]nisoxetine 1 nM
T3 construct: host or cells: CHO cells
T3 sequence (P23975 whole entry): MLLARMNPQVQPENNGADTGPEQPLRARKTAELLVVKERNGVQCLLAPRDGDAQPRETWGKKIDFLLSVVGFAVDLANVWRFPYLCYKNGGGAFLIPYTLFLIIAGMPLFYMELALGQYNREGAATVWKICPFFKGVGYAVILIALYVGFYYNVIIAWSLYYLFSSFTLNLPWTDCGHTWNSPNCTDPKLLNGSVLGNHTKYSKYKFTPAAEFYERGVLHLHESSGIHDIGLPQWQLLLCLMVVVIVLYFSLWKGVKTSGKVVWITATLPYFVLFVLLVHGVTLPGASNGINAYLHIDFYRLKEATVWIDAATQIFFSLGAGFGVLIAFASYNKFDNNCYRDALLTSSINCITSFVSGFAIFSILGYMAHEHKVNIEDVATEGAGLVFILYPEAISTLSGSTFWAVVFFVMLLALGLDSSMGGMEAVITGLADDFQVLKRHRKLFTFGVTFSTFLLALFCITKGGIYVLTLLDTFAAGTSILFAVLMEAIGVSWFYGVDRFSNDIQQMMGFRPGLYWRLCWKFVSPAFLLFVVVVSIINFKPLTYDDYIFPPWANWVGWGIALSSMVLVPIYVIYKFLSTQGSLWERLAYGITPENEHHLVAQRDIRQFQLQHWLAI

[1] = target: T4, human serotonin transporter (SERT) (Homo sapiens, UniProt P31645); assay: biochemical; assay type: binding
T4 construct: purchased PerkinElmer RBHSTM400UA
T4 sequence (P31645 whole entry): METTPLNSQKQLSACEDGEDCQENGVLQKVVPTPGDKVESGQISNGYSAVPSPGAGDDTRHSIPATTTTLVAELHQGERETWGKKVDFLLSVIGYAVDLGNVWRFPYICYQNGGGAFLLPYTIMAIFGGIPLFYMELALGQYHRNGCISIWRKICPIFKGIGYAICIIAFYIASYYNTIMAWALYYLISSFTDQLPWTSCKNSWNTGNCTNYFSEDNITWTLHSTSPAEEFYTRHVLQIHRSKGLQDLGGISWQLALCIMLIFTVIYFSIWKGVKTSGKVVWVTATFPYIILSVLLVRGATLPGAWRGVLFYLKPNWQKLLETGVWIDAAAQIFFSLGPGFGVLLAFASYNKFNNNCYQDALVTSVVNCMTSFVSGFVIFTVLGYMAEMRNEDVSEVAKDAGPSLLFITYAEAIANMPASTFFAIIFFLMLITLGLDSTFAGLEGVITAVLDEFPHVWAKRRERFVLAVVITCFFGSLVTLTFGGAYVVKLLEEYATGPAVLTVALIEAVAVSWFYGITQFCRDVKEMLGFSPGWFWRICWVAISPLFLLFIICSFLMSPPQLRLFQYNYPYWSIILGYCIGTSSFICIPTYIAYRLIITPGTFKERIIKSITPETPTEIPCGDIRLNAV

D2 (h) = target: T5, D2 (h) (Homo sapiens, UniProt P14416); assay: Competition assay to measure binding affinity at D2L receptor; conditions: test ligand 10 μM; [3H]methylspiperone 0.3 nM
T5 construct: host or cells: HEK-293 cells
T5 sequence (P14416 whole entry): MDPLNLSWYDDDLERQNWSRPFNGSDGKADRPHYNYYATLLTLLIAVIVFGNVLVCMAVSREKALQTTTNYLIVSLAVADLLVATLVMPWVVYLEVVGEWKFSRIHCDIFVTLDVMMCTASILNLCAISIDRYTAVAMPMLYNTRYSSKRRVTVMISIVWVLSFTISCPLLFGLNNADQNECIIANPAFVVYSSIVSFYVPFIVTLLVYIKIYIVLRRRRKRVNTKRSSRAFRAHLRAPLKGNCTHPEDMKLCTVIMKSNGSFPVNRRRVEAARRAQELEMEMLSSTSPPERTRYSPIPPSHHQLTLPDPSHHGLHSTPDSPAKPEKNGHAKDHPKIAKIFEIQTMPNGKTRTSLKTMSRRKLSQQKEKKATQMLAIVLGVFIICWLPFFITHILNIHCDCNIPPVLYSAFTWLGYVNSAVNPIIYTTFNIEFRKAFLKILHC

5-HT1A receptor = target: T6, 5-HT1A receptor (Homo sapiens, UniProt P08908); assay: 5-HT1A receptor radioligand competition assay (SPA); assay type: binding; conditions: for pKi: competition with 0.5 nM 8-hydroxy-DPAT [3H], test compound 3 nM to 1 mM, read-out: 5-HT1A, Ki
T6 construct: purchased Perkin Elmer 6110501400UA
T6 sequence (P08908 1-422): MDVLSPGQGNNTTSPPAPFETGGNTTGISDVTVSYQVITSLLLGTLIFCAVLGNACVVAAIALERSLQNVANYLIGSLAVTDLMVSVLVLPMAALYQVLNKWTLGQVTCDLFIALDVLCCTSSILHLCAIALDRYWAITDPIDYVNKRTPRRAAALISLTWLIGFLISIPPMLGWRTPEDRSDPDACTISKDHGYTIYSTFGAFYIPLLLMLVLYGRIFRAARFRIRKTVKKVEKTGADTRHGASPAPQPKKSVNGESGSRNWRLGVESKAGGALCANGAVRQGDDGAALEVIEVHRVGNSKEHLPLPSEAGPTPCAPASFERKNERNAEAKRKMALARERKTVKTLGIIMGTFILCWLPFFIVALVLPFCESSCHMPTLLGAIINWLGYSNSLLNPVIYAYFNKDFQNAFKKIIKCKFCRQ

5-HT1B (h) = target: T7, 5-HT1B (h) (Homo sapiens, UniProt P28222); assay: Competition assay to measure binding affinity at 5-HT1B receptor; conditions: test ligand 10 μM; [3H]GR125743 1 nM
T7 construct: host or cells: Chem-1 (RBL) cells
T7 sequence (P28222 whole entry): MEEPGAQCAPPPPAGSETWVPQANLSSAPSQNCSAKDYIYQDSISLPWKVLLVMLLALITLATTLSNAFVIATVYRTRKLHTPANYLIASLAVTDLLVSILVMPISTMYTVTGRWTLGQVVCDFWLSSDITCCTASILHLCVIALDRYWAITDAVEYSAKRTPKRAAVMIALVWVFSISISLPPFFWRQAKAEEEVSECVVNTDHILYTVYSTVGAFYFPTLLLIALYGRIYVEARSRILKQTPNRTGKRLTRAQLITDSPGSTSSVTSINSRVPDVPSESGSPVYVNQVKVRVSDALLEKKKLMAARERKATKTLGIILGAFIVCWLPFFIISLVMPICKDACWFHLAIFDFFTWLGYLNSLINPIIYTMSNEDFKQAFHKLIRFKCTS

5-HT2C (h) = target: T8, 5-HT2C (h) (Homo sapiens, UniProt P28335); assay: Competition assay to measure binding affinity at 5-HT2C receptor; conditions: test ligand 10 μM; [125I](±)DOI 0.1 nM
T8 construct: host or cells: HEK-293 cells
T8 sequence (P28335 33-458): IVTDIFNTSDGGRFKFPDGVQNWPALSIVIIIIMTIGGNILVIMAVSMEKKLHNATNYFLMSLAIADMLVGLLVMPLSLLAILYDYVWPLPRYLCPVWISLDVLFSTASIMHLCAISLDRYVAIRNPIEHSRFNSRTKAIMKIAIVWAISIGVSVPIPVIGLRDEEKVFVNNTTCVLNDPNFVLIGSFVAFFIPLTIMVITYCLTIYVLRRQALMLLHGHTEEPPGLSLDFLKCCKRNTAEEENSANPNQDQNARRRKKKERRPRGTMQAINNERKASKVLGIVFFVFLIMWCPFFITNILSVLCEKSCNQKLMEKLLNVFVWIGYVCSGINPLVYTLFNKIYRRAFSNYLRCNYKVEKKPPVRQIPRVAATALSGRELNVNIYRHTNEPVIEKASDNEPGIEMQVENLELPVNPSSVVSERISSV

D3 (h) = target: T9, D3 (h) (Homo sapiens, UniProt P35462); assay: Competition assay to measure binding affinity at D3 receptor; conditions: test ligand 10 μM; [3H]methylspiperone […]
T9 construct: host or cells: CHO cells
T9 sequence (P35462 whole entry): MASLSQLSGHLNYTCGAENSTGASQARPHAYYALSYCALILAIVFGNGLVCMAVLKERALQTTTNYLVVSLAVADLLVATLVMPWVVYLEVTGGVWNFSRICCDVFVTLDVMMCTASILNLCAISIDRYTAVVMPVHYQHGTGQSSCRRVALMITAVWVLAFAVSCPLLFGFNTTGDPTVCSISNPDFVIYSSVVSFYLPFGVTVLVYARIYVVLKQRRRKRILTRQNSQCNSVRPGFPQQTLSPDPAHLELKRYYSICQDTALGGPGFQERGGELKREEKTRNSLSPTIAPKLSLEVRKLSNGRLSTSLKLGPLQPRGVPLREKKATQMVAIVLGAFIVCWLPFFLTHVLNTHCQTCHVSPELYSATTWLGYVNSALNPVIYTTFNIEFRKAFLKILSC

MT1 (ML1A) (h) = target: T10, MT1 (ML1A) (h) (Homo sapiens, UniProt P48039); assay: Competition assay to measure binding affinity at MT1 receptor; conditions: test ligand 10 μM; [125I]2-iodomelatonin 0.01 nM
T10 construct: host or cells: CHO cells
T10 sequence (P48039 whole entry): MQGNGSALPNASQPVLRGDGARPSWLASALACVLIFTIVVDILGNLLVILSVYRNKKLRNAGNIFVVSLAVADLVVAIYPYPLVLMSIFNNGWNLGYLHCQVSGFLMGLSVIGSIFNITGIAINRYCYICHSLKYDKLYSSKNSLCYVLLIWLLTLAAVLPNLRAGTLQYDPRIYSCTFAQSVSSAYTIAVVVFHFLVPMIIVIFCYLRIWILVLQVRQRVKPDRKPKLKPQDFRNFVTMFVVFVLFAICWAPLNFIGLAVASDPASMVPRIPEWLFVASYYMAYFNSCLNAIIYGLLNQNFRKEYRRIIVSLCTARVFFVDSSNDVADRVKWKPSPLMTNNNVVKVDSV

DAT (h) = target: T11, DAT (h) (Homo sapiens, UniProt Q01959); assay: Competition assay to measure binding affinity at dopamine transporter (DAT); conditions: test ligand 10 μM; [3H]BTCP 4 nM
T11 construct: host or cells: CHO cells
T11 sequence (Q01959 whole entry): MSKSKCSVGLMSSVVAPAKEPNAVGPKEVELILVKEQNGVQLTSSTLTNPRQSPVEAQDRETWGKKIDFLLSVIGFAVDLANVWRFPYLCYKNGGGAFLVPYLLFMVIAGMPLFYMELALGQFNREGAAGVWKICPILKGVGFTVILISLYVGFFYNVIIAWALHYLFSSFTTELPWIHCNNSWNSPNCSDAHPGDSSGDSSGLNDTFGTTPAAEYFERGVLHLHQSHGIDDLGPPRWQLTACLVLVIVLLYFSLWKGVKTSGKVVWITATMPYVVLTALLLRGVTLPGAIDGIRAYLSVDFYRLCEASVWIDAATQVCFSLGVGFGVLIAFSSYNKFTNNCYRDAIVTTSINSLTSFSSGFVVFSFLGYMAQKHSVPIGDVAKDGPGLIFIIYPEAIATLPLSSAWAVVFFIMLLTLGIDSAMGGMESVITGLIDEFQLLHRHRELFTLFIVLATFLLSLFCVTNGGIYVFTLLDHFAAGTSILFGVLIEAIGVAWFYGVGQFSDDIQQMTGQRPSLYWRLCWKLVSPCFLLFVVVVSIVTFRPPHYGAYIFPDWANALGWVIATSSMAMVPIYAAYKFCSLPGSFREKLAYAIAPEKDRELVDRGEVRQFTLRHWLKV

alpha2A (h) = target: T12, alpha2A (h) (Homo sapiens, UniProt P08913); assay: Competition assay to measure binding affinity at alpha2A receptor; conditions: test ligand 10 μM, [3H]RX 821002 1 nM; for inhibition at 10 µM: read-out: α-2A, percent of control-specific binding
T12 construct: host or cells: CHO cells
T12 sequence (P08913 1-465): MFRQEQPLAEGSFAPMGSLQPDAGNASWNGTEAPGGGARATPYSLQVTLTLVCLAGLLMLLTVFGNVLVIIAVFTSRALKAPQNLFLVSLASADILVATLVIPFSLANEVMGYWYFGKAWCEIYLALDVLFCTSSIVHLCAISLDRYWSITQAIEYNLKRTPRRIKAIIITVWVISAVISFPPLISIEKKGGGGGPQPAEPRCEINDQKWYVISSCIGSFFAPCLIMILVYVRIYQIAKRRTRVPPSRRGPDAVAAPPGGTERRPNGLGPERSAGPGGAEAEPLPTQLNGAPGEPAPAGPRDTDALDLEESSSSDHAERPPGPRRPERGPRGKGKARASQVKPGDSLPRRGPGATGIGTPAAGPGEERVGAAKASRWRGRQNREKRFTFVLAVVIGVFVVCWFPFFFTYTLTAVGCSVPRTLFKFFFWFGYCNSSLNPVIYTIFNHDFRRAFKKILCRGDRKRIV

5-HT2B (h) = target: T13, 5-HT2B (h) (Homo sapiens, UniProt P41595); assay: Competition assay to measure binding affinity at 5-HT2B receptor; conditions: test ligand 10 μM; [3H]mesulergine 2 nM
T13 construct: host or cells: CHO cells
T13 sequence (P41595 whole entry): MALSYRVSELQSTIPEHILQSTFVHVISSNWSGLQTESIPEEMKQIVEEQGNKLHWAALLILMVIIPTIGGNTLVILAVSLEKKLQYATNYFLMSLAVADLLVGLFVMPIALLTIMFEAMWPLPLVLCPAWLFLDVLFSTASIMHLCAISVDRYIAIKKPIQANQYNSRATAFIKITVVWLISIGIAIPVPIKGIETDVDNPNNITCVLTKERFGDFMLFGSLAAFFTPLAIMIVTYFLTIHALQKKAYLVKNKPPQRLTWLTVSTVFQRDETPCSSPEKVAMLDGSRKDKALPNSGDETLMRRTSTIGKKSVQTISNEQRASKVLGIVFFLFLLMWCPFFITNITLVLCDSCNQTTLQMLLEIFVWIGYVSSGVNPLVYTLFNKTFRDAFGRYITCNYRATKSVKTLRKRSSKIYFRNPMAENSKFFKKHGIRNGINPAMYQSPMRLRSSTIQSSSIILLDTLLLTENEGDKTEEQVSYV

T1 sequence (P28565 whole entry): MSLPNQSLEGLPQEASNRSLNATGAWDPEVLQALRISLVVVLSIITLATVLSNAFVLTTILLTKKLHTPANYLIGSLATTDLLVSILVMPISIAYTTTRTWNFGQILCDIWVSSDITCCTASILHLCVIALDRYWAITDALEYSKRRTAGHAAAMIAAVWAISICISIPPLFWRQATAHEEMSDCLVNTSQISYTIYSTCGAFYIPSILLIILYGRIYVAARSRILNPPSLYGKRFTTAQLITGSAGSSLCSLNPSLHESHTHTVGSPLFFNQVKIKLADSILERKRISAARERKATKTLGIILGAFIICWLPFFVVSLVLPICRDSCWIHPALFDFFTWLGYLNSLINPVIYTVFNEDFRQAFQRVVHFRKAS

Compound	HT1D, percent of control-specific binding (5-HT1D (r)) [%]	HT7, percent of control-specific binding (5-HT7 (h)) [%]	NET, percent of control-specific binding (NET (h)) [%]	pKi [1]	D2, percent of control-specific binding (D2 (h)) [%]	pKi (5-HT1A receptor)	HT1B, percent of control-specific binding (5-HT1B (h)) [%]	HT2C, percent of control-specific binding (5-HT2C (h)) [%]	D3, percent of control-specific binding (D3 (h)) [%]	MT1, percent of control-specific binding (MT1 (ML1A) (h)) [%]	DAT, percent of control-specific binding (DAT (h)) [%]	inhibition at 10 µM (alpha2A (h)) [%]	HT2B, percent of control-specific binding (5-HT2B (h)) [%]	SERT binding, binding curve in words [1]	5-HT1A receptor binding, binding curve in words (5-HT1A receptor; FIGS. 35C-35L)	α-2A, percent of control-specific binding (alpha2A (h)) [%]
O=C(Cc1ccc2c(c1)OC(F)(F)O2)N1CCCC1 [A(XXVII)]	2	0	15	3.20	0	< 3.00	0	9	0	2	5	0	5			
N[C@@H](Cc1c[nH]c2ccccc12)C(=O)O [tryptophan, reference compound]	3		1	< 3.00	−19	< 3.00	−22	25	−23	−2	1	-4	0	no binding to SERT	no binding	
CC(NC(C)(C)C)C(=O)c1cccc(Cl)c1 (stereo not shown) [Bupropion, reference compound]	−1				−5		9	1	3	83	92	2	−2			
N#Cc1ccc2[nH]cc(CCCCN3CCN(c4ccc5oc(C(N)=O)cc5c4)CC3)c2c1 [Vilazodone, reference compound]	97		99		97		67	92	99	84	98	65	96			
COc1ccc2cccc(CCNC(C)=O)c2c1 [Agomelatine, reference compound]	10		1		−4		−9	92	6	99	1	2	93			
O=c1n(CCCN2CCN(c3cccc(Cl)c3)CC2)nc2ccccn12 [Trazodone, reference compound]			−1		61		61	93	89	14	24	91	97			
COc1cc(CC(C)N)c(OC)cc1Br (stereo not shown) [DOB, reference compound]	84	65	6		9		20		25	−3	3		97			66
Cc1ccc(Sc2ccccc2N2CCNCC2)c(C)c1 [vortioxetine, reference compound]	100		99	8.69	51		101	99	88	26	90	62	97	very tight interaction		
CNCC[C@H](Oc1cccc2ccccc12)c1cccs1 [Duloxetine, reference compound]	63				24		52	92	66	23			95			
COc1cc2c(cc1CC(=O)NCCO)OCO2 [A(XXII)]	5	20	1	4.28	0	< 3.00	0	15	3	18	0	0	14			
COc1ccc2[nH]cc(CCNC(C)=O)c2c1 [Melatonin, reference compound]	13		−2		−20		0	19	2	98	4	-7	52			
CN(C)CCCN1c2ccccc2CCc2ccccc21 [Imipramine, reference compound]	39		99		82		36	98	92	29	23	57	94			
